Tests used:
NR1/NR2B [1] = molecular target: NR1/NR2B (Homo sapiens (Human), UniProt Q05586+Q13224); test: Cell assay: FDSS Ca2+ influx inhibition in HEK293 cells expressing NR1/NR2B; details: Binned Activity, HEK293 cells expressing NR1/NR2B, Ca2+ influx; binned NR2B NAM IC50;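 note: Fluo-8 Ca2+ signal read on Hamamatsu FDSS 6000 after glutamate, glycine and Ca2+ challenge following 10 min compound preincubation, end/baseline fluorescence ratio compared with MK801 control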
NR1/NR2B [2] = molecular target: NR1/NR2B (Homo sapiens (Human), UniProt Q13224); test: as above; details: read-out: NR2B NAM IC50; HEK293 cells expressing NR1/NR2B, Ca2+ influx
Chain of NR1/NR2B (Homo sapiens (Human), UniProt Q13224) (Q13224 27-1484, other chains not shown): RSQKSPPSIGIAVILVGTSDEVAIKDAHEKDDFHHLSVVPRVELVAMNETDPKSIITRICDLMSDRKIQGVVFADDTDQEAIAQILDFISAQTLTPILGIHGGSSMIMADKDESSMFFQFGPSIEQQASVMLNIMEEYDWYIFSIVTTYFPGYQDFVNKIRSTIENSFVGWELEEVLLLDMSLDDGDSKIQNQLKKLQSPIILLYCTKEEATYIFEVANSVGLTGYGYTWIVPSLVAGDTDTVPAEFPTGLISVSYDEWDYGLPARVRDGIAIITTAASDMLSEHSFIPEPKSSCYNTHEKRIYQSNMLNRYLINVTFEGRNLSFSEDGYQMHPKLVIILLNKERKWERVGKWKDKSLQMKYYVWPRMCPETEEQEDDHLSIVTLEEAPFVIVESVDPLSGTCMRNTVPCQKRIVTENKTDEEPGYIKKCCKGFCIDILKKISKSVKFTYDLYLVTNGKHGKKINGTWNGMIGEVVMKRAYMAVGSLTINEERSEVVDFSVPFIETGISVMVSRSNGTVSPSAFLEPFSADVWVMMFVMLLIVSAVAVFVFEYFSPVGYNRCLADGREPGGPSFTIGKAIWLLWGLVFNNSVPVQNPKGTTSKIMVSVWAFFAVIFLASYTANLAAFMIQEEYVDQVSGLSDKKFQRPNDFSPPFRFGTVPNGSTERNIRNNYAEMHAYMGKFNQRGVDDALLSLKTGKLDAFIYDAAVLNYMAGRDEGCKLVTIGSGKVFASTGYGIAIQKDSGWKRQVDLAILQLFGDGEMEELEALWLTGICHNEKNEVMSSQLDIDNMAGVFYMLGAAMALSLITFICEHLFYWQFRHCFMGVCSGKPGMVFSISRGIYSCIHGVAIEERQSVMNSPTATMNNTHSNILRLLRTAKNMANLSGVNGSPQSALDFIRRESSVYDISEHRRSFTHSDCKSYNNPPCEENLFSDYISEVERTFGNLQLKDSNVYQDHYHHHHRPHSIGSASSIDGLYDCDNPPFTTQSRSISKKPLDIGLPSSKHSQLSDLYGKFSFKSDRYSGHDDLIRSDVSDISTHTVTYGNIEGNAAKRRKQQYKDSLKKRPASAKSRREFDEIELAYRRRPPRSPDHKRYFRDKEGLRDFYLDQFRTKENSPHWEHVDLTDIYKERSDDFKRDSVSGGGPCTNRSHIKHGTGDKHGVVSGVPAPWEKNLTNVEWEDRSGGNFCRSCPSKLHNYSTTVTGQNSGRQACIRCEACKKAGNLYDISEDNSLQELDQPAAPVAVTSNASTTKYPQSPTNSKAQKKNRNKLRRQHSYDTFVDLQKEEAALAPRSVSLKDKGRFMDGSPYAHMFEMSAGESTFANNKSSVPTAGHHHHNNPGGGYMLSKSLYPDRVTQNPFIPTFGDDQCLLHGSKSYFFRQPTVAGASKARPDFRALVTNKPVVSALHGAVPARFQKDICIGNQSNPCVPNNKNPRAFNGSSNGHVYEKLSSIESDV

Chain of NR1/NR2B (Homo sapiens (Human), UniProt Q05586+Q13224) (Q13224 27-1484, other chains not shown): as above

| Structure (SMILES) | IC50 (NR1/NR2B [1]) | IC50 (NR1/NR2B [2]) |
| --- | --- | --- |
| COc1ccc(C)cc1NC(=O)N1C[C@@H]2C[C@@](O)(Cc3ccccc3)C[C@@H]2C1 [Example 124, (3aR,5r,6aS)-5-benzyl-5-hydroxy-N-(2-methoxy-5-methylphenyl)hexahydro-cyclopenta[c]pyrrole-2(1H)-carboxamide] | > 10 µM | 10 µM |
| Oc1ccc([C@H](O)CN2C[C@@H]3C[C@](F)(Cc4ccccc4)C[C@@H]3C2)cc1 [Example 315, 4-((S)-2-((3aR,5R,6aS)-5-benzyl-5-fluoro-hexahydrocyclopen-ta[c]pyrrol-2(1H)-yl)-1-hydroxyethyl)phenol] | 0.1 to 1 µM | 0.324 µM |
| O=C(CN1C[C@@H]2C[C@@](O)(Cc3ccc(F)cc3F)C[C@@H]2C1)c1ccc(O)cn1 [Example 230, 2-((3aR,5r,6aS)-5-(2,4-difluorobenzyl)-5-hydroxyhexahydrocyclo-penta[c]pyrrol-2(1H)-yl)-1-(5-hydroxypyridin-2-yl)ethanone] | 1 to 10 µM | 2.16 µM |
| O=C(Nc1ccccc1)N1C[C@@H]2C[C@@](O)(Cc3ccccc3)C[C@@H]2C1 [Example 122, (3aR,5r,6aS)-5-benzyl-5-hydroxy-N-phenylhexahydrocyclo-penta[c]pyrrole-2(1H)-carboxamide] | > 10 µM | 10 µM |
| CC(C)(C)c1ccc([C@]2(O)C[C@H]3CN(c4ccccn4)C[C@H]3C2)cc1 [Example 88, 5-(4-tert-butylphenyl)-2-(pyridin-2-yl)-octahydrocyclopenta[c] pyrrol-5-ol] | > 10 µM | 10 µM |
| Oc1ccc([C@H](O)CN2C[C@@H]3C[C@@](O)(Cc4ccccc4)C[C@@H]3C2)nc1 [Example 165, (3aR,5R,6aS)-5-benzyl-2-((R)-2-hydroxy-2-(5-hydroxypyridin-2-yl)ethyl)octahydrocyclo-penta[c]pyrrol-5-ol] | < 0.1 µM | 0.0337 µM |
| O=C(CN1C[C@H]2C[C@H](Cc3ccccc3)C[C@H]2C1)c1ccc(O)c(F)c1 [Example 308, 2-[(3aR,5R,6aS)-5-benzyl-octahydrocyclopenta[c]pyrrol-2-yl]-1-(3-fluoro-4-hydroxyphenyl) ethan-1-one] | < 0.1 µM | 0.0522 µM |
| Cc1ccccc1[C@]1(O)C[C@H]2CN(c3cccc(C(F)(F)F)n3)C[C@H]2C1 [Example 84, 5-(2-methylphenyl)-2-[6-(trifluoromethyl)pyridin-2-yl]-octahydrocyclopenta[c] pyrrol-5-ol] | > 10 µM | 10 µM |
| CS(=O)(=O)Nc1ccc(C(=O)CN2C[C@@H]3C[C@@](O)(Cc4ccccc4)C[C@@H]3C2)nc1 [Example 235, N-(6-(2-((3aR,5r,6aS)-5-benzyl-5-hydroxyhexahydrocyclo-penta[c]pyrrol-2(1H)-yl)acetyl)pyridin-3-yl)methanesulfonamide] | > 10 µM | 10 µM |
| O=C(Nc1ccc(Cl)c(C(F)(F)F)c1)N1C[C@@H]2C[C@@](O)(Cc3ccccc3)C[C@@H]2C1 [Example 120, (3aR,5r,6aS)-5-benzyl-N-(4-chloro-3-(trifluoromethyl)phenyl)-5-hydroxyhexahydrocyclo-penta[c]pyrrole-2(1H)-carboxamide] | > 10 µM | 10 µM |
| COc1ccccc1CNC(=O)N1C[C@H]2C[C@@H](c3ccccc3)C[C@H]2C1 [Example 112, N-[(2-methoxyphenyl)methyl]-5-phenyl-octahydrocyclopenta[c] pyrrole-2-carboxamide] | > 10 µM | 10 µM |
| Cc1cccc(NC(=O)N2C[C@@H]3C[C@@](O)(Cc4ccccc4)C[C@@H]3C2)c1 [Example 129, (3aR,5r,6aS)-5-benzyl-5-hydroxy-N-(m-tolyl)hexahydrocyclo-penta[c]pyrrole-2(1H)-carboxamide] | > 10 µM | 10 µM |
| O=C(CN1C[C@H]2C[C@H](Cc3ccccc3)C[C@H]2C1)c1ccc(O)cc1 [Example 305, 2-[(3aR,5R,6aS)-5-benzyl-octahydrocyclopenta[c]pyrrol-2-yl]-1-(4-hydroxyphenyl)ethan-1-one] | < 0.1 µM | 0.0535 µM |
| COc1ccc(C)cc1NC(=O)N1C[C@@H]2C[C@@](O)(c3ccccc3C)C[C@@H]2C1 [Example 23, 5-hydroxy-N-(2-methoxy-5-methylphenyl)-5-(2-methylphenyl)-octahydrocyclopenta[c] pyrrole-2-carboxamide] | > 10 µM | 10 µM |
| Oc1ccc(C(O)CCN2C[C@@H]3C[C@@](O)(c4ccccc4)C[C@@H]3C2)cc1 (some centres unmarked) [Example 98, 2-(3-hydroxy-3-(4-hydroxyphenyl)propyl)-5-phenyloctahydrocyclopen-ta[c]pyrrol-5-ol] | > 10 µM | 10 µM |
| O[C@@]1(c2ccc(F)cc2)C[C@H]2CN(c3ccccn3)C[C@H]2C1 [Example 80, 5-(4-fluorophenyl)-2-(pyridin-2-yl)-octahydrocyclopenta[c] pyrrol-5-ol] | > 10 µM | 10 µM |
| COc1cccc([C@]2(O)C[C@H]3CN(CC(=O)c4cccc(F)c4)C[C@H]3C2)c1 [Example 62, 1-(3-fluorophenyl)-2-[5-hydroxy-5-(3-methoxyphenyl)-octahydrocyclopenta[c]pyrrol-2-yl]ethan-1-one] | > 10 µM | 10 µM |
| O=C(CN1C[C@@H]2C[C@@](O)(c3cccnc3F)C[C@@H]2C1)c1ccc(O)cn1 [Example 244, 2-((3aR,6aS)-5-(2-fluoropyridin-3-yl)-5-hydroxyhexahydrocyclo-penta[c]pyrrol-2(1H)-yl)-1-(5-hydroxypyridin-2-yl)ethanone] | > 10 µM | 10 µM |
| O=C(Nc1ccc(F)cc1F)N1C[C@@H]2C[C@@](O)(c3ccccc3)C[C@@H]2C1 [Example 19, N-(2,4-difluorophenyl)-5-hydroxy-5-phenyl-octahydrocyclopenta[c] pyrrole-2-carboxamide] | > 10 µM | 10 µM |

The next lines start with the values.

| IC50 (NR1/NR2B [1]) | IC50 (NR1/NR2B [2]) | Structure (SMILES) |
| --- | --- | --- |
| > 10 µM | 10 µM | O=C(CN1C[C@@H]2CC(O)(CCc3ccccc3)C[C@@H]2C1)c1ccc(-c2cccc(F)c2)cc1 (some centres unmarked) [Example 270, 1-[4-(3-fluorophenyl)phenyl]-2-[5-hydroxy-5-(2-phenylethyl)-octahydrocyclopenta[c]pyrrol-2-yl]ethan-1-one] |
| > 10 µM | 10 µM | O=C(CN1C[C@@H]2C[C@@](O)(Cc3ccccc3)C[C@@H]2C1)c1ccc(=O)[nH]n1 [Example 157, 6-(2-((3aR,5r,6aS)-5-benzyl-5-hydroxyhexahydrocyclo-penta[c]pyrrol-2(1H)-yl)acetyl)pyridazin-3(2H)-one] |
| < 0.1 µM | 0.0981 µM | COc1cccc(C[C@]2(O)C[C@H]3CN(CC(=O)c4ccc(O)cc4)C[C@H]3C2)c1 [Example 194, 2-((3aR,5r,6aS)-5-hydroxy-5-(3-meth-oxybenzyl)hexahydro-cyclopenta[c]pyrrol-2(1H)-yl)-1-(4-hydroxyphenyl)ethanone] |
| > 10 µM | 10 µM | O=C(CN1C[C@@H]2C[C@@](O)(Cc3ccccc3)C[C@@H]2C1)c1ccc(-c2cccc(F)c2)cc1 [Example 261, 2-((3aR,5r,6aS)-5-benzyl-5-hydroxyhexahydrocyclo-penta[c]pyrrol-2(1H)-yl)-1-(3′-fluoro-[1,1′-biphenyl]-4-yl)ethanone] |
| > 10 µM | 10 µM | O=C(CN1C[C@@H]2CC(O)(CCc3ccccc3)C[C@@H]2C1)c1ccc(-c2ccccc2)cc1 (some centres unmarked) [Example 269, 2-[5-hydroxy-5-(2-phenylethyl)-octahydrocyclopenta[c]pyrrol-2-yl]-1-(4-phenylphenyl)ethan-1-one] |
| < 0.1 µM | 0.093 µM | O=C(CN1C[C@@H]2C[C@@](F)(Cc3ccccc3)C[C@@H]2C1)c1ccc(O)cc1 [Example 312] |
| > 10 µM | 10 µM | O=C(CN1C[C@@H]2C[C@@](O)(Cc3ccccc3)C[C@@H]2C1)c1ccc(-c2ccc(F)cc2)cc1 [Example 262, 2-((3aR,5r,6aS)-5-benzyl-5-hydroxyhexahydrocyclo-penta[c]pyrrol-2(1H)-yl)-1-(4′-fluoro-[1,1′-biphenyl]-4-yl)ethanone] |
| > 10 µM | 10 µM | Cc1cccc(-c2cccc(C(=O)CN3C[C@@H]4C[C@@](O)(Cc5ccccc5)C[C@@H]4C3)c2)c1 [Example 276, 2-((3aR,5r,6aS)-5-benzyl-5-hydroxyhexahydrocyclo-penta[c]pyrrol-2(1H)-yl)-1-(3′-methyl-[1,1′-biphenyl]-3yl)ethanone] |
| < 0.1 µM | 0.0766 µM | O=C(CN1C[C@@H]2C[C@](O)(Cc3ccccc3)C[C@@H]2C1)c1ccc(O)cc1 [Example 290, 2-((3aR,5r,6aS)-5-benzyl-5-hydroxyhexahydrocyclo-penta[c]pyrrol-2(1H)-yl)-1-(4-hydroxyphenyl)ethanone] |
| > 10 µM | 10 µM | CC(C)(C)C(=O)Nc1ccc(C(=O)CN2C[C@@H]3C[C@@](O)(Cc4ccccc4)C[C@@H]3C2)cn1 [Example 285, N-(5-(2-(5-benzyl-5-hydroxyhexahydrocyclo-penta[c]pyrrol-2(1H)-yl)acetyl)pyridin-2-yl)pivalamide] |
| < 0.1 µM | 0.0441 µM | O=C(CN1C[C@@H]2C[C@@](O)(Cc3ccccc3)C[C@@H]2C1)c1ccc(O)cc1 [Example 130, 2-((3aR,5r,6aS)-5-benzyl-5-hydroxyhexahydrocyclo-penta[c]pyrrol-2(1H)-yl)-1-(4-hydroxyphenyl)ethanone] |
| > 10 µM | 10 µM | O=C(CN1C[C@@H]2C[C@@](O)(Cc3ccccc3)C[C@@H]2C1)c1ccc(-c2cccnc2)cc1 [Example 267, 2-((3aR,5r,6aS)-5-benzyl-5-hydroxyhexahydrocyclo-penta[c]pyrrol-2(1H)-yl)-1-(4-(pyridin-3-yl)phenyl)ethanone] |

— patent publication US10052306B2 (LUC THERAPEUTICS, INC., priority 2013, dated 2018)
